Measurements: ChEMBL document CHEMBL5385886, “Design, synthesis and evaluation of nitric oxide releasing derivatives of 2,4-diaminopyrimidine as novel FAK inhibitors for intervention of metastatic triple-negative breast cancer” (Eur J Med Chem, 2023)
Values belong to the compound of their own block, whether it stands above or below them. Active and inactive are the calls of the source. The calls are words filed in the database; no cut-off is given here.

Assays:
MDA-MB-231 [1] = assay: Antiproliferative activity against human MDA-MB-231 cells assessed as inhibition of cell proliferation at 5 uM incubated for 72 hrs by MTT assay relative to control; assay type: functional
MDA-MB-157 = assay: Antiproliferative activity against human MDA-MB-157 cells assessed as inhibition of cell proliferation incubated for 72 hrs by MTT assay; assay type: functional, cell-based; settings: MDA-MB-157, 72 h
MDA-MB-231 [2] = assay: Antiproliferative activity against human MDA-MB-231 cells assessed as inhibition of cell proliferation incubated for 72 hrs by MTT assay; assay type: functional, cell-based; settings: MDA-MB-231, 72 h
MDA-MB-453 = assay: Antiproliferative activity against human MDA-MB-453 cells assessed as inhibition of cell proliferation incubated for 72 hrs by MTT assay; assay type: functional, cell-based; settings: MDA-MB-453, 72 h
[3] = Selectivity index, ratio of IC50 for human MCF-10A cells to IC50 for human MDA-MB-231 cells; assay type: toxicity; settings: MCF-10A cells versus MDA-MB-231 cells, read-out: Ratio IC50
[4] = Cytotoxicity against human MCF-10A cells assessed as inhibition of cell proliferation incubated for 72 hrs by MTT assay; assay type: toxicity, cell-based
MDA-MB-231 [5] = assay: Potency index, ratio of TAE226 IC50 to test compound IC50 for antiproliferative activity against human MDA-MB-231 cells assessed as inhibition of cell proliferation incubated for 72 hrs by MTT assay; assay type: functional
Focal adhesion kinase 1 [6] = target: T1, Focal adhesion kinase 1 (Homo sapiens, UniProt Q05397); assay: Inhibition of FAK (unknown origin)
Target sequence in this assay (Q05397 whole entry): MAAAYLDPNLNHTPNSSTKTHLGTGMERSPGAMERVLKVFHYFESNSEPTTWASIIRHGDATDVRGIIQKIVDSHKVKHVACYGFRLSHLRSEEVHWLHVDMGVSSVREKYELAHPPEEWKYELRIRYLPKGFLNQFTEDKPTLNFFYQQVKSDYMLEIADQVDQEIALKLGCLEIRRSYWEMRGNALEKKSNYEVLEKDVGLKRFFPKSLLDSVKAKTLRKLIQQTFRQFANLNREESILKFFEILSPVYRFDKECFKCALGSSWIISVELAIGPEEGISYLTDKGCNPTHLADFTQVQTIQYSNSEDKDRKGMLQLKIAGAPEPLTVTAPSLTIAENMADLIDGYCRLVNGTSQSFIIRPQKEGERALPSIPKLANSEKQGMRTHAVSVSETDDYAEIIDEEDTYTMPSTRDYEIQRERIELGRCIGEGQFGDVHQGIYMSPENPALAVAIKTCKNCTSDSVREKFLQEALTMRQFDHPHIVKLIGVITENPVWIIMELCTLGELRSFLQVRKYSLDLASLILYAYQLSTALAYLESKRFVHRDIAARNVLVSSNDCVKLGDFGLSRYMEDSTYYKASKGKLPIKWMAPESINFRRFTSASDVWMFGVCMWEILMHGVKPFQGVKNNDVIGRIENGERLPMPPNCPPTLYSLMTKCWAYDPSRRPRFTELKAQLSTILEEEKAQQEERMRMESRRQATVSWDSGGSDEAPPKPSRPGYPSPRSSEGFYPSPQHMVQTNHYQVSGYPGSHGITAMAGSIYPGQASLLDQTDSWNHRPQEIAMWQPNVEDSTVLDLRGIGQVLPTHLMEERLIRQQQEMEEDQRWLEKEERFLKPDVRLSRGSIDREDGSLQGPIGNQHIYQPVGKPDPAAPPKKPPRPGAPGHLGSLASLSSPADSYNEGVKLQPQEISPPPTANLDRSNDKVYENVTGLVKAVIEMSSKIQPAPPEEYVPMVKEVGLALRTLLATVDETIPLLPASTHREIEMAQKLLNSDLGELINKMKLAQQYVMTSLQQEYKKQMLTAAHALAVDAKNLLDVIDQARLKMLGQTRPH

MDA-MB-231 [7] = assay: Antimigratory activity in human MDA-MB-231 cells incubated for 48 hrs by scratch wound healing assay; assay type: functional, cell-based; settings: dose 1-4 µM
MDA-MB-231 [8] = assay: Induction of NO production in human MDA-MB-231 cells incubated for 72 hrs by DAF-FM-DA dye based flow cytometry analysis; assay type: functional, cell-based; settings: dose 1-4 µM
MDA-MB-231 [9] = assay: Antiproliferative activity against human MDA-MB-231 cells assessed as inhibition of cell proliferation at 1 uM incubated for 72 hrs by MTT assay; assay type: functional, cell-based
MDA-MB-231 [10] = assay: Antiproliferative activity against human MDA-MB-231 cells assessed as inhibition of cell proliferation at 1 uM pretreated with carboxy-PTIO at 5 to 20 uM for 1 hr followed by compound addition and further incubated for 72 hrs by MTT assay; assay type: functional, cell-based
MDA-MB-231 [11] = assay: Inhibition of cell invasion in human MDA-MB-231 cells assessed as reduction in number of invasive cells incubated for 48 hrs by crystal violet staining based inverted microscopic analysis; assay type: functional; settings: dose 1-4 µM
Focal adhesion kinase 1 [12] = target: T1, Focal adhesion kinase 1; assay: Inhibition of FAK autophosphorylation at Y397 residue in human MDA-MB-231 cells incubated for 72 hrs by Western blot analysis; assay type: cell-based; settings: dose 1-4 µM
Target sequence in this assay (Q05397 2-1052 limits assumed): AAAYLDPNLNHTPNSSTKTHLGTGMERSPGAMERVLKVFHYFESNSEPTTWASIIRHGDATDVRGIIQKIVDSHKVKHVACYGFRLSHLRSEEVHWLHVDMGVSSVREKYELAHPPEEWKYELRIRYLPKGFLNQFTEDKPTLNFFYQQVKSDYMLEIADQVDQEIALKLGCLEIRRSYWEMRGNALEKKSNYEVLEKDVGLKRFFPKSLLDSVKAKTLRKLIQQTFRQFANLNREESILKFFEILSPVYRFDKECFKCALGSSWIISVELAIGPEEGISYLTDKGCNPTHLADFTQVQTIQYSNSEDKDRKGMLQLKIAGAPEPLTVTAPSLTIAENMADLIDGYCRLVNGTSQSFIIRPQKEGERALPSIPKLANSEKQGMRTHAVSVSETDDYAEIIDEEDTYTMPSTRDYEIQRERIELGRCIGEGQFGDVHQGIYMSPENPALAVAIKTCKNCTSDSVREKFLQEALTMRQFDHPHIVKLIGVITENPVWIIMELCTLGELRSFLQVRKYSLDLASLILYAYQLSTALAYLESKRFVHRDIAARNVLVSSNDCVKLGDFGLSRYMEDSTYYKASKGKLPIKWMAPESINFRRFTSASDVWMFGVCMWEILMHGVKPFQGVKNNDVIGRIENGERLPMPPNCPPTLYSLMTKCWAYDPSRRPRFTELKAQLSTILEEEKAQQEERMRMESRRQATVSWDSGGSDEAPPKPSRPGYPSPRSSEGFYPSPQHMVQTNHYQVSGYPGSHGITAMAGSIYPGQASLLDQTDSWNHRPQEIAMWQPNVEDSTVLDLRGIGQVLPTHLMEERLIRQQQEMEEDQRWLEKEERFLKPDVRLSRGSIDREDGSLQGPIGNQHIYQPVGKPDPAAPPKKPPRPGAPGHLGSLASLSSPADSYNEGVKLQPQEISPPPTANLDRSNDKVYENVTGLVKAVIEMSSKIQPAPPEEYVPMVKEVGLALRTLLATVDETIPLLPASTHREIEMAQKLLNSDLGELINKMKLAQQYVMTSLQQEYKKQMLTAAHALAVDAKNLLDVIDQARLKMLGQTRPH

MDA-MB-231 [13] = assay: Effect on FAK protein expression in human MDA-MB-231 cells at 1 to 4 uM incubated for 72 hrs by Western blot analysis; assay type: functional, cell-based; settings: dose 1-4 µM
Focal adhesion kinase 1 [14] = target: T1, Focal adhesion kinase 1; assay: Inhibition of FAK autophosphorylation at Y397 residue in human MDA-MB-231 cells at 4 uM pretreated with carboxy-PTIO followed by compound addition and further incubated for 72 hrs by Western blot analysis; assay type: cell-based
Target sequence in this assay (Q05397 2-1052 limits assumed): as above

Focal adhesion kinase 1 [15] = target: T1, Focal adhesion kinase 1; assay: Inhibition of FAK-mediated signaling pathway in human MDA-MB-231 cells assessed as reduction in phosphorylated AKT protein level incubated for 72 hrs by Western blot analysis; assay type: cell-based; settings: dose 1-4 µM
Target sequence in this assay (Q05397 2-1052 limits assumed): as above

Focal adhesion kinase 1 [16] = target: T1, Focal adhesion kinase 1; assay: Inhibition of FAK-mediated signaling pathway in human MDA-MB-231 cells assessed as reduction in MMP-2 protein level incubated for 72 hrs by Western blot analysis; assay type: cell-based; settings: dose 1-4 µM
Target sequence in this assay (Q05397 2-1052 limits assumed): as above

Focal adhesion kinase 1 [17] = target: T1, Focal adhesion kinase 1; assay: Inhibition of FAK-mediated signaling pathway in human MDA-MB-231 cells assessed as reduction in MMP-9 protein level incubated for 72 hrs by Western blot analysis; assay type: cell-based; settings: dose 1-4 µM
Target sequence in this assay (Q05397 2-1052 limits assumed): as above

Focal adhesion kinase 1 [18] = target: T1, Focal adhesion kinase 1; assay: Inhibition of FAK-mediated signaling pathway in human MDA-MB-231 cells assessed as reduction in phosphorylated AKT protein level at 4 uM pretreated with carboxy-PTIO followed by compound addition and further incubated for 72 hrs by Western blot analysis; assay type: cell-based
Target sequence in this assay (Q05397 2-1052 limits assumed): as above

Focal adhesion kinase 1 [19] = target: T1, Focal adhesion kinase 1; assay: Inhibition of FAK-mediated signaling pathway in human MDA-MB-231 cells assessed as reduction in MMP-2 protein level at 4 uM pretreated with carboxy-PTIO followed by compound addition and further incubated for 72 hrs by Western blot analysis; assay type: cell-based
Focal adhesion kinase 1 [20] = target: T1, Focal adhesion kinase 1; assay: Inhibition of FAK-mediated signaling pathway in human MDA-MB-231 cells assessed as reduction in MMP-9 protein level at 4 uM pretreated with carboxy-PTIO followed by compound addition and further incubated for 72 hrs by Western blot analysis; assay type: cell-based
MDA-MB-231 [21] = assay: Inhibition of focal adhesion formation in human MDA-MB-231 cells assessed as reduction in anti-vinculin antibodies fluorescence signal at 4 uM incubated for 72 hrs by confocal microscopic analysis; assay type: functional, cell-based
MDA-MB-231 [22] = assay: Inhibition of stress fibers formation in human MDA-MB-231 cells assessed as reduction in FITC-conjugated phalloidin fluorescence signal at 4 uM incubated for 72 hrs by confocal microscopic analysis; assay type: functional, cell-based
MDA-MB-231 [23] = assay: Inhibition of focal adhesion formation in human MDA-MB-231 cells assessed as reduction in anti-vinculin antibodies fluorescence signal at 4 uM pretreated with carboxy-PTIO for 1 hr followed by compound addition and further incubated for 72 hrs by confocal microscopic analysis; assay type: functional, cell-based
MDA-MB-231 [24] = assay: Inhibition of stress fibers formation in human MDA-MB-231 cells assessed as reduction in FITC-conjugated phalloidin fluorescence signal at 4 uM pretreated with carboxy-PTIO for 1 hr followed by compound addition and further incubated for 72 hrs by confocal microscopic analysis; assay type: functional, cell-based
MDA-MB-231 [25] = assay: Inhibition of focal adhesion formation in human MDA-MB-231 cells assessed as reduction in number of focal adhesions at 4 uM incubated for 72 hrs by quantitative analysis; assay type: functional, cell-based
MDA-MB-231 [26] = assay: Inhibition of stress fibers formation in human MDA-MB-231 cells assessed as reduction in number of stress fibers at 4 uM incubated for 72 hrs by quantitative analysis; assay type: functional, cell-based
MDA-MB-231 [27] = assay: Inhibition of focal adhesion formation in human MDA-MB-231 cells assessed as reduction in total area at 4 uM incubated for 72 hrs; assay type: functional, cell-based
MDA-MB-231 [28] = assay: Inhibition of stress fibers formation in human MDA-MB-231 cells assessed as reduction in total area at 4 uM incubated for 72 hrs; assay type: functional, cell-based
MDA-MB-231 [29] = assay: Induction of apoptosis in human MDA-MB-231 cells assessed as live cells at 1 uM incubated for 72 hrs by Annexin V-FITC/PI staining based flow cytometry analysis (reference value: 97.51%); assay type: functional
MDA-MB-231 [30] = assay: Induction of apoptosis in human MDA-MB-231 cells assessed as early apoptotic cells at 1 uM incubated for 72 hrs by Annexin V-FITC/PI staining based flow cytometry analysis (reference value: 2.16%); assay type: functional
MDA-MB-231 [31] = assay: Induction of apoptosis in human MDA-MB-231 cells assessed as late apoptotic cells at 1 uM incubated for 72 hrs by Annexin V-FITC/PI staining based flow cytometry analysis (reference value: 0.11%); assay type: functional
MDA-MB-231 [32] = assay: Induction of apoptosis in human MDA-MB-231 cells assessed as dead cells at 1 uM incubated for 72 hrs by Annexin V-FITC/PI staining based flow cytometry analysis (reference value: 0.23%); assay type: functional
MDA-MB-231 [33] = assay: Induction of apoptosis in human MDA-MB-231 cells assessed as live cells at 2 uM incubated for 72 hrs by Annexin V-FITC/PI staining based flow cytometry analysis (reference value: 97.51%); assay type: functional
MDA-MB-231 [34] = assay: Induction of apoptosis in human MDA-MB-231 cells assessed as early apoptotic cells at 2 uM incubated for 72 hrs by Annexin V-FITC/PI staining based flow cytometry analysis (reference value: 2.16%); assay type: functional
MDA-MB-231 [35] = assay: Induction of apoptosis in human MDA-MB-231 cells assessed as late apoptotic cells at 2 uM incubated for 72 hrs by Annexin V-FITC/PI staining based flow cytometry analysis (reference value: 0.11%); assay type: functional
MDA-MB-231 [36] = assay: Induction of apoptosis in human MDA-MB-231 cells assessed as dead cells at 2 uM incubated for 72 hrs by Annexin V-FITC/PI staining based flow cytometry analysis (reference value: 0.23%); assay type: functional
MDA-MB-231 [37] = assay: Induction of apoptosis in human MDA-MB-231 cells assessed as live cells at 4 uM incubated for 72 hrs by Annexin V-FITC/PI staining based flow cytometry analysis (reference value: 97.51%); assay type: functional
MDA-MB-231 [38] = assay: Induction of apoptosis in human MDA-MB-231 cells assessed as early apoptotic cells at 4 uM incubated for 72 hrs by Annexin V-FITC/PI staining based flow cytometry analysis (reference value: 2.16%); assay type: functional
MDA-MB-231 [39] = assay: Induction of apoptosis in human MDA-MB-231 cells assessed as late apoptotic cells at 4 uM incubated for 72 hrs by Annexin V-FITC/PI staining based flow cytometry analysis (reference value: 0.11%); assay type: functional
MDA-MB-231 [40] = assay: Induction of apoptosis in human MDA-MB-231 cells assessed as dead cells at 4 uM incubated for 72 hrs by Annexin V-FITC/PI staining based flow cytometry analysis (reference value: 0.23%); assay type: functional
MDA-MB-231 [41] = assay: Antitumor activity against human MDA-MB-231 cells xenografted in po dosed BALB/c nude mouse assessed as reduction in number of lung tumor nodules administered once daily for 30 days; assay type: functional, organism-based; settings: dose 15-30 mg/kg, time 30.0 day
[42] = Toxicity in BALB/c nude mouse xenografted with human MDA-MB-231 cells assessed as reduction in body weight at 50 to 30 mg/kg, po administered once daily for 30 days and measured every 3 days; assay type: organism-based; settings: in vivo, 720 h, dose 50-30 mg/kg, time 30 day
[43] = Toxicity in BALB/c nude mouse xenografted with human MDA-MB-231 cells assessed as animal death at 50 to 30 mg/kg, po administered once daily for 30 days; assay type: organism-based; settings: in vivo, 720 h, dose 50-30 mg/kg, time 30 day
MDA-MB-231 [44] = assay: Induction of NO production in human MDA-MB-231 cells at 4 uM incubated for 72 hrs by DAF-FM-DA dye based flow cytometry analysis; assay type: functional, cell-based

SMILES: CNC(=O)c1ccccc1Nc1nc(Nc2ccc(CC(=O)OCCCCCCCCOc3no[n+]([O-])c3S(=O)(=O)c3ccccc3)cc2)ncc1Cl
inhibition at 5 µM (MDA-MB-231 [1]): > 92% | IC50 (MDA-MB-157): 167 nM | IC50 (MDA-MB-231 [2]): 126 nM | IC50 (MDA-MB-453): 159 nM | selectivity ratio [3]: 19.1 | IC50 at 72 h [4]: 2400 nM | Ratio IC50 (MDA-MB-231 [5]): ~10 | IC50 (Focal adhesion kinase 1 [6]): 27.4 nM | Activity (MDA-MB-231 [7]): Dose-Dependent Effect | Activity (MDA-MB-231 [8]): Dose-Dependent Effect | Activity (MDA-MB-231 [9]): Active | Activity (MDA-MB-231 [10]): inactive | inhibition (MDA-MB-231 [11]): Dose-Dependent Effect | inhibition (Focal adhesion kinase 1 [12]): Dose-Dependent Effect | Activity (MDA-MB-231 [13]): inactive | inhibition (Focal adhesion kinase 1 [14]): inactive | inhibition (Focal adhesion kinase 1 [15]): Dose-Dependent Effect | inhibition (Focal adhesion kinase 1 [16]): Dose-Dependent Effect | inhibition (Focal adhesion kinase 1 [17]): Dose-Dependent Effect | inhibition (Focal adhesion kinase 1 [18]): inactive | inhibition (Focal adhesion kinase 1 [19]): inactive | inhibition (Focal adhesion kinase 1 [20]): inactive | inhibition (MDA-MB-231 [21]): Active | inhibition (MDA-MB-231 [22]): Active | inhibition (MDA-MB-231 [23]): inactive | inhibition (MDA-MB-231 [24]): inactive | inhibition (MDA-MB-231 [25]): Active | inhibition (MDA-MB-231 [26]): Active | inhibition (MDA-MB-231 [27]): Active | inhibition (MDA-MB-231 [28]): Active | Activity (MDA-MB-231 [29]): 77.01% | Activity (MDA-MB-231 [30]): 12.6% | Activity (MDA-MB-231 [31]): 6.46% | Activity (MDA-MB-231 [32]): 3.94% | Activity (MDA-MB-231 [33]): 74.91% | Activity (MDA-MB-231 [34]): 9.88% | Activity (MDA-MB-231 [35]): 13.83% | Activity (MDA-MB-231 [36]): 1.38% | Activity (MDA-MB-231 [37]): 26% | Activity (MDA-MB-231 [38]): 56.72% | Activity (MDA-MB-231 [39]): 13.94% | Activity (MDA-MB-231 [40]): 3.34% | Activity (MDA-MB-231 [41]): Dose-Dependent Effect | Activity [42]: Non-Toxic | Activity [43]: Non-Toxic

IC50 (MDA-MB-157): 188 nM | IC50 (MDA-MB-231 [2]): 129 nM | IC50 (MDA-MB-453): 246 nM | IC50 (Focal adhesion kinase 1 [6]): 31.4 nM
SMILES: CNC(=O)c1ccccc1Nc1nc(Nc2ccc(CC(=O)OCCCCCCCOc3no[n+]([O-])c3S(=O)(=O)c3ccccc3)cc2)ncc1Cl
inhibition at 5 µM (MDA-MB-231 [1]): > 92% | Activity (MDA-MB-231 [44]): Active
